Measured values taken from patent publication US10723723B2, “Substituted bicycle heterocyclic derivatives useful as ROMK channel inhibitors” (BRISTOL-MYERS SQUIBB COMPANY, priority 2016, dated 2020).

target: hERG channels (Homo sapiens (Human), UniProt Q12809); assay: hERG Manual Patch Clamp Assay (HEK 293 cells stably expressing hERG channels); type: cell-based; details: human, HEK 293 cells stably expressing hERG channels, pH 7.4
Sequence (Q12809 whole entry): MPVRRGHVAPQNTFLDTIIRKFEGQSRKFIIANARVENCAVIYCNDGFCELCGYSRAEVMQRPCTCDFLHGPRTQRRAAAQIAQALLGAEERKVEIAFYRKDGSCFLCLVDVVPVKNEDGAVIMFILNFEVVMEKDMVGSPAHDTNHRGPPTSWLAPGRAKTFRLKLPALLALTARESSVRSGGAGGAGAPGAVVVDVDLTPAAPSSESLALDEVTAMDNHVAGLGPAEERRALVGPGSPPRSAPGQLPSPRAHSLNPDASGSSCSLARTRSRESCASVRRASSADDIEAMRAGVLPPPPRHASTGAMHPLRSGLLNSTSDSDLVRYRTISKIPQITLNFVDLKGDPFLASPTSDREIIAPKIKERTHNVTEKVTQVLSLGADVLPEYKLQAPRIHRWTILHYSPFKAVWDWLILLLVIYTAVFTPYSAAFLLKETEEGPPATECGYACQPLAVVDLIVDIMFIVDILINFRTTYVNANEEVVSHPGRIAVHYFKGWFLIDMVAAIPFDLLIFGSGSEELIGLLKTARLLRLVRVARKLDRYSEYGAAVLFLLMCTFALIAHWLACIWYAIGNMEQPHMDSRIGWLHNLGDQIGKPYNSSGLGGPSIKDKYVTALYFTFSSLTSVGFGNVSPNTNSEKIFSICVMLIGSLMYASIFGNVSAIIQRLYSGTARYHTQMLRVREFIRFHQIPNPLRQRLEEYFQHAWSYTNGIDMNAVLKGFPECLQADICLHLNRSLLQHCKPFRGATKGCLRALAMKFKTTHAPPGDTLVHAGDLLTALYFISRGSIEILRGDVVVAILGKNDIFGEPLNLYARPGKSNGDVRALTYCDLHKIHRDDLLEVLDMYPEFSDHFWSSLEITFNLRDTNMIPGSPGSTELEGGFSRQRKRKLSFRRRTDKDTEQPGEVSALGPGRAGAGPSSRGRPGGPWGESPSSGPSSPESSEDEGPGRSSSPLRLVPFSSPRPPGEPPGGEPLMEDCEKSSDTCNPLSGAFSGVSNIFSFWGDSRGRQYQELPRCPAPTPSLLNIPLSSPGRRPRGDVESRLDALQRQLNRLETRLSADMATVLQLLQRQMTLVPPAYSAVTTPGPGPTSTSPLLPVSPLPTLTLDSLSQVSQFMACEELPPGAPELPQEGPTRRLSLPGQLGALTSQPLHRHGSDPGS

| SMILES | inhibition at 1 µM [%] |
| --- | --- |
| Cc1cc(-c2ccc(CNCC(O)c3ccc4c(c3C)COC4=O)cn2)ncc1C#N (single isomer, unassigned) [Example 4-I, 5′-(((2-hydroxy-2-(4-methyl-1-oxo-1,3-dihydroisobenzofuran-5-yl)ethyl)amino)methyl)-4-methyl-[2,2′-bipyridine]-5-carbonitrile] | 22 |
| Cc1c(C(O)CN(C)Cc2ccc(-c3ccc(C#N)c(F)c3)nc2)ccc2c1COC2=O (single isomer, unassigned) [Example 21-I, 2-fluoro-4-(5-(((2-hydroxy-2-(4-methyl-1-oxo-1,3-dihydroisobenzofuran-5-yl)ethyl)(methyl)amino)methyl)pyridin-2-yl)benzonitrile] | 68 |
| Cc1cc(-c2ccc(CN(C)CC(O)c3ccc4c(c3C)COC4=O)cn2)ncc1C#N (single isomer, unassigned) [Example 22-I, 5′-(((2-hydroxy-2-(4-methyl-1-oxo-1,3-dihydroisobenzofuran-5-yl)ethyl)(methyl)amino)methyl)-4-methyl-[2,2′-bipyridine]-5-carbonitrile] | 9.5 |
| Cc1c(C(O)CNCc2ccc(-c3ccc(C#N)c(F)c3)nc2)ccc2c1COC2=O (centres unmarked) [Example 3-I, 2-fluoro-4-(5-(((2-hydroxy-2-(4-methyl-1-oxo-1,3-dihydroisobenzofuran-5-yl)ethyl)amino)methyl)pyridin-2-yl)benzonitrile] | 66 |

target: hROMK (human Kir1.1) (Homo sapiens (Human), UniProt P48048); assay: Thallium Flux Assay (FluxOR, CHO T-Rex hROMK stable cell line); type: cell-based; details: CHO T-Rex hROMK cells, 10-point concentration response curve; read-out: Human ROMK TH Flux IC50
Sequence (P48048 whole entry): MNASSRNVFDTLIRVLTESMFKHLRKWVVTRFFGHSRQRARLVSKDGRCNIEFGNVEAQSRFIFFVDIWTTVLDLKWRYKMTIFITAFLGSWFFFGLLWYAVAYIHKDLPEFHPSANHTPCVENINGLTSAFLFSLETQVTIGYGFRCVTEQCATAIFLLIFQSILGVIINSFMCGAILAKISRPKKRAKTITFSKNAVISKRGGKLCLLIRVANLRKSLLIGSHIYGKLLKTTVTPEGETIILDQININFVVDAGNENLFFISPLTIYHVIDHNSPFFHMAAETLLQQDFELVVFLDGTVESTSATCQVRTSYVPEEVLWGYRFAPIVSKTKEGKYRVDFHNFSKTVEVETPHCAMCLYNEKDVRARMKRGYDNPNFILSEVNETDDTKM

| SMILES | IC50 [nM] |
| --- | --- |
| Cc1c([C@@H](O)CN(CCCC(F)(F)F)Cc2ccc(-c3ccc4oc(=O)n(C)c4c3)nc2)ccc2c1COC2=O [Example 163, (R)-5-(5-(((2-hydroxy-2-(4-methyl-1-oxo-1,3-dihydroisobenzofuran-5-yl)ethyl)(4,4,4-trifluorobutyl)amino)meth-yl)pyridin-2-yl)-3-methylbenzo[d]oxazol-2(3H)-one] | 260 |
| Cc1cc(-n2cc(CNC[C@H](O)c3ccc4c(c3C)COC4=O)cn2)cc(C)n1 [Example 164, (R)-5-(2-(((1-(2,6-dimethylpyridin-4-yl)-1H-pyrazol-4-yl)methyl)amino)-1-hydroxyethyl)-4-methylisobenzofuran-1(3H)-one] | 280 |
| Cc1c([C@@H](O)CNCc2cnn(-c3cnccn3)c2)ccc2c1COC2=O [Example 165, (R)-5-(1-hydroxy-2-(((1-(pyrazin-2-yl)-1H-pyrazol-4-yl)methyl)amino)ethyl)-4-methylisobenzofuran-1(3H)-one] | 470 |
| Cc1c([C@@H](O)CNCc2cnn(-c3ccnc4c3ccn4C)c2)ccc2c1COC2=O [Example 166, (R)-5-(1-hydroxy-2-(((1-(1-methyl-1H-pyrrolo[2,3-b]pyridin-4-yl)-1H-pyrazol-4-yl)methyl)amino)ethyl)-4-methylisobenzofuran-1(3H)-one] | 1300 |
| Cc1cc(-n2cc(CNC[C@H](O)c3ccc4c(c3C)COC4=O)c3ncccc32)ncc1C#N [Example 168, (R)-6-(3-(((2-hydroxy-2-(4-methyl-1-oxo-1,3-dihydroisobenzofuran-5-yl)ethyl)amino)methyl)-1H-pyrrolo[3,2-b]pyridin-1-yl)-4-methylnicotinonitrile] | 120 |
| Cc1c([C@@H](O)CNCc2cnn(-c3ccc(-c4noc(=O)n4C)cn3)c2)ccc2c1COC2=O [Example 171, (R)-3-(6-(4-(((2-hydroxy-2-(4-methyl-1-oxo-1,3-dihydroisobenzofuran-5-yl)ethyl)amino)methyl)-1H-pyrazol-1-yl)pyridin-3-yl)-4-methyl-1,2,4-oxadiazol-5(4H)-one] | 1000 |
| Cc1cc(-n2cc(CNC[C@@H](c3ccc4c(c3C)COC4=O)N(C)C)cn2)ncc1C#N [Example 174, (R)-6-(4-(((2-(dimethylamino)-2-(4-methyl-1-oxo-1,3-dihydroisobenzofuran-5-yl)ethyl)amino)methyl)-1H-pyrazol-1-yl)-4-methylnicotinonitrile] | 11600 |
